Molecular target: T1, cereblon (Homo sapiens, UniProt Q96SW2)
T1 construct: gene CRBN; CRBN/DDB1−CUL4A−Rbx1 complex (BPS Bioscience catalog no. 79770); with DDB1−CUL4A−Rbx1; BRD3
Assay: AlphaScreen bead-based cereblon/BRD3 binding assay (called FRET in the text)

T1 sequence (Q96SW2 whole entry): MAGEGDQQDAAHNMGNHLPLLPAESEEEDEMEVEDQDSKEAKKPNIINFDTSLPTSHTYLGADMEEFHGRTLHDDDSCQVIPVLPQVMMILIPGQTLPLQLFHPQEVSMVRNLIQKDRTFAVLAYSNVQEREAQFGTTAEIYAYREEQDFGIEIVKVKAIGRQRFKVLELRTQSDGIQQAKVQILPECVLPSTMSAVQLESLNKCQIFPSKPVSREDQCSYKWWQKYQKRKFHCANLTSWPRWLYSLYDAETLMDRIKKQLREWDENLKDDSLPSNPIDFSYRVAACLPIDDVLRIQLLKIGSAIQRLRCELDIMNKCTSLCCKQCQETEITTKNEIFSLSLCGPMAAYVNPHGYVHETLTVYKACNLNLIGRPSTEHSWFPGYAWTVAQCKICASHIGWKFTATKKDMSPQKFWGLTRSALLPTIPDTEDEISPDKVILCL
T1 sequence (Q16531 2-1140 partner): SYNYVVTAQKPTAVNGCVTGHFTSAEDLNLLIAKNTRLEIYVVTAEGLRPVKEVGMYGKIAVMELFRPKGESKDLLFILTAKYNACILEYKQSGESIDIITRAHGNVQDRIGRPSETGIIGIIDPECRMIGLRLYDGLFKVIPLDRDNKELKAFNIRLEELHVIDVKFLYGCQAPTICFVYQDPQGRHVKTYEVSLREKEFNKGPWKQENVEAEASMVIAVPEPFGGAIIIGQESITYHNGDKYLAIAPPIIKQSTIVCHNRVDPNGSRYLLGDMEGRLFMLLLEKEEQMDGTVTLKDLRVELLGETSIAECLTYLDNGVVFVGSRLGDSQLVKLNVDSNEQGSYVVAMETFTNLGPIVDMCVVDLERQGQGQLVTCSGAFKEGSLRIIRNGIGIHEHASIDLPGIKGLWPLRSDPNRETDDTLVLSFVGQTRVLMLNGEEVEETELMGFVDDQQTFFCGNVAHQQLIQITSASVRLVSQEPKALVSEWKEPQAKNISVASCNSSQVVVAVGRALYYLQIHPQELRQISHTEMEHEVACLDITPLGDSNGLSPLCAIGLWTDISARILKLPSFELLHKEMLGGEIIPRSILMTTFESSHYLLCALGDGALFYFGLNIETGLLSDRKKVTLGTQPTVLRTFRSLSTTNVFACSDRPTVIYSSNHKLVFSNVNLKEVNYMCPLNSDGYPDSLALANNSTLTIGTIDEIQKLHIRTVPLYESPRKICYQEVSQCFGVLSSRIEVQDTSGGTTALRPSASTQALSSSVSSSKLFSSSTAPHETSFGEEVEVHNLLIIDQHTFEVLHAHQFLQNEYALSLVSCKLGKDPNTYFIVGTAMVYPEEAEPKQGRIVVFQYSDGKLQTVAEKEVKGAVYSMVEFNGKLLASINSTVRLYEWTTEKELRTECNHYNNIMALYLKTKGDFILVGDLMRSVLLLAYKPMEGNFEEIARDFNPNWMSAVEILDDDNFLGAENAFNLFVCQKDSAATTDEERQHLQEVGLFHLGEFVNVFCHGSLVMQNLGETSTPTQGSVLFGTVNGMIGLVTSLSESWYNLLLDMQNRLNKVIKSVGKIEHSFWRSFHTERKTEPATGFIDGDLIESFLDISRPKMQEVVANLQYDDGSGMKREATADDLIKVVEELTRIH
T1 sequence (Q13619 whole entry partner): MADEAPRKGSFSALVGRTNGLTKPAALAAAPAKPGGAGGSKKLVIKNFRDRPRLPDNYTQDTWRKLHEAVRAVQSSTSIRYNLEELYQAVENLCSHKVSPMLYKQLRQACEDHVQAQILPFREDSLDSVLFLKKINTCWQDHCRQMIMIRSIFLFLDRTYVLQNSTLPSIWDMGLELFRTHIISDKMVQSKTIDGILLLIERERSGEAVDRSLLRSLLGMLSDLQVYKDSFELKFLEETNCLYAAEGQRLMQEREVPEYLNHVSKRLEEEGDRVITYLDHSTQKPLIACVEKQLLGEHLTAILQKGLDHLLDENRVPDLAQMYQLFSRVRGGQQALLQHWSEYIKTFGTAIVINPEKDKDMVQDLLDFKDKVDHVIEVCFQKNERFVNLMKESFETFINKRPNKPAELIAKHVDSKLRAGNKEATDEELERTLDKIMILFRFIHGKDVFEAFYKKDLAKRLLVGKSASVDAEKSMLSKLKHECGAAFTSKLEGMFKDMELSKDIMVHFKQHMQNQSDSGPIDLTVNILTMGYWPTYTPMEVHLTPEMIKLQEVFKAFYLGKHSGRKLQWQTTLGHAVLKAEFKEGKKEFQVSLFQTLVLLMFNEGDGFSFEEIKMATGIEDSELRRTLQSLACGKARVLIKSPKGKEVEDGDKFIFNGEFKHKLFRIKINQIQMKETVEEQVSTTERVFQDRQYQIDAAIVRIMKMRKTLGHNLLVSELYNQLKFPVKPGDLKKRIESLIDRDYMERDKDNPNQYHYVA
T1 sequence (P62877 whole entry partner): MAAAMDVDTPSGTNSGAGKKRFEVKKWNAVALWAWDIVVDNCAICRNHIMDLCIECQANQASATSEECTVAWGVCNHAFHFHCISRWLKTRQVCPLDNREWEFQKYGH

IC50: 2660 nM
Compound: Nc1ccc(F)c2c1C(=S)N(C1CCC(=S)NC1=O)C2=O (stereo not shown) [F-3,6′-DP]

From PMC9598880, “Activity of a Novel Anti-Inflammatory Agent F-3,6′-dithiopomalidomide as a Treatment for Traumatic Brain Injury” (Biomedicines, 2022)
